Laboratory results published in article PMC7524750, “Dual COX and 5-LOX inhibition by clerodane diterpenes from seeds of Polyalthia longifolia (Sonn.) Thwaites” (Scientific Reports, 2020).
Where two headings read alike, the source gives them in different places.

What was measured:
[1] = target: T1, COX-1 (Ovis aries, UniProt P05979); test: Cyclooxygenase COX-1 inhibitory assay (Cayman COX inhibitor assay kit); format: biochemical, ovine; settings: mean ± SD, n=3; for inhibition at 2.5 µg/mL / inhibition at 5 µg/mL / inhibition at 7.5 µg/mL / inhibition at 10 µg/mL: read-out: Percentage inhibition COX1
T1 construct: purchased Cayman 560131
T1 sequence (P05979 25-600): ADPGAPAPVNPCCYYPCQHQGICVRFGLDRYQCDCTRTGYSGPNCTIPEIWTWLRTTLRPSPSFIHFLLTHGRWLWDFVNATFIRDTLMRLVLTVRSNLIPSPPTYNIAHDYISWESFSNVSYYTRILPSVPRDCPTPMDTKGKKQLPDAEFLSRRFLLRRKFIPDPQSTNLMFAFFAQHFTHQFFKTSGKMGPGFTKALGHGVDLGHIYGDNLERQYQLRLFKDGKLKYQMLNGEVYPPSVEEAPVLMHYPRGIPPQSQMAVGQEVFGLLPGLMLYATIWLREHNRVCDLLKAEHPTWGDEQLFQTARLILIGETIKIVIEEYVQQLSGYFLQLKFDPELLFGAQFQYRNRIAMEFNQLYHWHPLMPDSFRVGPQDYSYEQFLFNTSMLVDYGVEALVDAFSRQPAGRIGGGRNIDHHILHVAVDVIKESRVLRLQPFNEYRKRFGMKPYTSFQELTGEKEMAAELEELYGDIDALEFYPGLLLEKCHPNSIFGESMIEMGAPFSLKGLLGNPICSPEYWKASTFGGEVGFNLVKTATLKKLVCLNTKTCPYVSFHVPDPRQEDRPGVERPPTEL
Method: (§1) To 10 µl of either COX1 or COX2 added 0.1 M Tris–HCl buffer (960 µl) and different known concentrations of test samples and incubated at 37 °C for 10 min. Later 10 µl of 100 µM arachidonic acid, after 2 min 1 M HCl of 50 µl and Ellman’s reagent, were added. The absorbance was measured spectrophotometrically at 410 nm against the blank. The percentage of inhibition was deliberated with the absorbance values, and IC50 values were calculated by linear regression.

[2] = target: T2, COX-2 (Homo sapiens, UniProt P35354); test: Cyclooxygenase COX-2 inhibitory assay (Cayman COX inhibitor assay kit); format: biochemical; settings: mean ± SD, n=3; for inhibition at 2.5 µg/mL / inhibition at 5 µg/mL / inhibition at 7.5 µg/mL / inhibition at 10 µg/mL: read-out: Percentage inhibition COX2
T2 construct: purchased Cayman 560131
T2 sequence (P35354 18-604): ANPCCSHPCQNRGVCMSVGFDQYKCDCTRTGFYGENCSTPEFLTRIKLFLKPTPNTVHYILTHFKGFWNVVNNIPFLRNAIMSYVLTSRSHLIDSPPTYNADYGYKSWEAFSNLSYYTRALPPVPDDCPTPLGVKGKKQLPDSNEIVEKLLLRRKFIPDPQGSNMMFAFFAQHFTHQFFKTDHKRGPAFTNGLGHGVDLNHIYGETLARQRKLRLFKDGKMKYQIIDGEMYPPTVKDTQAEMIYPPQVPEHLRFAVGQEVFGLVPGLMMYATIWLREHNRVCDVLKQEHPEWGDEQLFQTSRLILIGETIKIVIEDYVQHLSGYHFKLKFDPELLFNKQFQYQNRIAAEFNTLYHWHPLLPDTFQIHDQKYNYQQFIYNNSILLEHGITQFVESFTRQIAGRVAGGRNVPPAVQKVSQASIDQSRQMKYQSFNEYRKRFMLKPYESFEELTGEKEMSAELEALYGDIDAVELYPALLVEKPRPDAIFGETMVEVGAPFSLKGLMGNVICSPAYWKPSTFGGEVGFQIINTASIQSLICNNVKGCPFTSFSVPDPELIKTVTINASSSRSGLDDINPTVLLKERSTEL
Method: as §1

[3] = target: T3, 5-LOX (human recombinant) (Homo sapiens, UniProt P09917); test: 5-lipoxygenase inhibitory assay (5-LOX assay kit); format: biochemical; settings: mean ± SD, n=3; for inhibition at 2.5 µg/mL / inhibition at 5 µg/mL / inhibition at 7.5 µg/mL / inhibition at 10 µg/mL: read-out: Percentage inhibition 5-LOX
T3 construct: purchased Sigma Aldrich 437996
T3 sequence (P09917 1-674): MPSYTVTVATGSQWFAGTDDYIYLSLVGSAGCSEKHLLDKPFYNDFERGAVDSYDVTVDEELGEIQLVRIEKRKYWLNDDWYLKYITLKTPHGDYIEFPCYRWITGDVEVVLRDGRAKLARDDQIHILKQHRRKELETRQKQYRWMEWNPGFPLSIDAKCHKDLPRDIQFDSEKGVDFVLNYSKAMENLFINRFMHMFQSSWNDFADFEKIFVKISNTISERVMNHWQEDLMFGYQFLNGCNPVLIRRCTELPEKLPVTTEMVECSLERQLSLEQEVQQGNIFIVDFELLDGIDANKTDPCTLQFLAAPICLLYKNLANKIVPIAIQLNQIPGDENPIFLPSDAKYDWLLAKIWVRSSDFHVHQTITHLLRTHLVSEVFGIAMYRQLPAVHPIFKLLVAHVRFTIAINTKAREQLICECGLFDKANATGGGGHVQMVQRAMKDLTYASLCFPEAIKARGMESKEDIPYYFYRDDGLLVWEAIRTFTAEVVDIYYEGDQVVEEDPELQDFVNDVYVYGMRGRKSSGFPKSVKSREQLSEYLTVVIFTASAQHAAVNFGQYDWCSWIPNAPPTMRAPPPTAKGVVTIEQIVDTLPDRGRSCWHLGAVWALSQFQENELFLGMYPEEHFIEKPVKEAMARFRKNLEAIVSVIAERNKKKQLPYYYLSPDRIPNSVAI
Method: To 90 µl of 5-LOX enzyme solution added different test sample concentrations, 100 µl of de chromogen, and finally added 10 µl of the substrate (arachidonic acid) and gently shake or 10 min and absorbance was measured at 490 nm against the blank. The % inhibition was deliberated with the absorbance values by which IC50 values were calculated by linear regression.

[4] = linear regression, read-out: IC50 values COX1 (converted)
[5] = linear regression, read-out: IC50 values COX2 (converted)
[6] = IC50 5-LOX (concentration required for 50% inhibition), Fig. 2
[7] = linear regression, read-out: IC50 values 5-LOX (converted)

Row | inhibition at 2.5 µg/mL [1] | inhibition at 5 µg/mL [1] | inhibition at 7.5 µg/mL [1] | inhibition at 10 µg/mL [1] | IC50 ([1]; Fig. 2, read-out: IC50 COX-1) | IC50 [1, 4] | inhibition at 2.5 µg/mL [2] | inhibition at 5 µg/mL [2] | inhibition at 7.5 µg/mL [2] | inhibition at 10 µg/mL [2] | IC50 ([2]; Fig. 2, read-out: IC50 COX-2) | IC50 [2, 5] | inhibition at 2.5 µg/mL [3] | inhibition at 5 µg/mL [3] | inhibition at 7.5 µg/mL [3] | inhibition at 10 µg/mL [3] | IC50 [3, 6] | IC50 [3, 7] | SMILES
1 | 42.3 ± 2.05% | 79.5 ± 1.01% | 86.5 ± 1.27% | 92.9 ± 2.46% | 9.46 ± 0.33 µM | 9.45 µM | 46.6 ± 0.9% | 57.2 ± 1.57% | 69.3 ± 3.66% | 79.4 ± 4.39% | 10.3 ± 0.26 µM | 10.3 µM | 30 ± 1.04% | 54.1 ± 1.1% | 67.2 ± 4.61% | 75.8 ± 2.97% | 14.4 ± 0.32 µM | 14.4 µM | CC1=CCCC2C1(C)CCC(C)C2(C)CCC1=CC(=O)OC1O (stereo not drawn) [Compound 5, 16α-hydroxy-cleroda-3,13(14)Z-dien-15,16-olide]
2 | 38.1 ± 0.72% | 61.5 ± 1.84% | 68.3 ± 2.99% | 83.9 ± 2.27% | 11.8 ± 0.19 µM | 11.8 µM | 48.8 ± 0.96% | 63.2 ± 1.41% | 73.3 ± 1.15% | 82.97 ± 0.44% | 8.49 ± 0.55 µM | 8.51 µM | 34.7 ± 1.47% | 59.3 ± 0.66% | 77.5 ± 0.92% | 85 ± 1.05% | 12.7 ± 0.21 µM | 12.7 µM | C=C1CCCC2C1(C)CCC(C)C2(C)CCC1=CC(=O)OC1O (stereo not shown) [Compound 3, 16-hydroxy-cleroda-4(18),13-dien-16,15-olide]
3 | 16.3 ± 3% | 28.3 ± 3.1% | 42.5 ± 1.68% | 50.9 ± 0.6% | 30.44 ± 0.3 µM | 30.4 µM | 34.5 ± 2.11% | 59.2 ± 0.77% | 77.4 ± 0.9% | 85 ± 1.17% | 12.7 ± 0.34 µM | 12.7 µM | 12.5 ± 1.45% | 24.5 ± 1.92% | 40 ± 4.41% | 51.2 ± 1.35% | 30.5 ± 0.53 µM | 30.5 µM | CC1=CCCC2C1(C)CCC(C)C2(C)CCC(=CC(=O)O)CO (stereo not shown) [Compound 2, 16-hydroxy-cleroda-3,13-dien-15-oic acid]
4 | – | – | – | – | – | – | – | – | – | – | – | – | 12.4 ± 1.49% | 23.1 ± 4.16% | 42.8 ± 1.82% | 64.4 ± 0.72% | – | – | O=C(O)Cc1ccccc1Nc1c(Cl)cccc1Cl [Diclofenac, reference compound]
5 | 40.8 ± 0.79% | 61.1 ± 0.69% | 72.3 ± 3.77% | 79.5 ± 2.53% | 10.8 ± 0.17 µM | 10.9 µM | 36.8 ± 2.52% | 55.21 ± 0.43% | 67.1 ± 2.47% | 75.1 ± 2.73% | 12.8 ± 0.21 µM | 12.8 µM | 23.2 ± 2.28% | 44.3 ± 1.68% | 55.4 ± 0.65% | 67.2 ± 2.67% | 16.9 ± 0.56 µM | 17 µM | C=C1C(O)CCC2C1(C)CCC(C)C2(C)CCC1=CC(=O)OC1O (stereo not drawn) [Compound 4, 3α,16α-dihydroxy-cleroda-4(18),13(14)Z-dien-15,16-olide]

Row | SMILES | inhibition at 2.5 µg/mL [1] | inhibition at 5 µg/mL [1] | inhibition at 7.5 µg/mL [1] | inhibition at 10 µg/mL [1] | IC50 ([1]; Fig. 2, read-out: IC50 COX-1) | IC50 [1, 4] | inhibition at 2.5 µg/mL [2] | inhibition at 5 µg/mL [2] | inhibition at 7.5 µg/mL [2] | inhibition at 10 µg/mL [2] | IC50 ([2]; Fig. 2, read-out: IC50 COX-2) | IC50 [2, 5] | inhibition at 2.5 µg/mL [3] | inhibition at 5 µg/mL [3] | inhibition at 7.5 µg/mL [3] | inhibition at 10 µg/mL [3] | IC50 [3, 6] | IC50 [3, 7]
6 | CC1=CCCC2C1(C)CCC(C)C2(C)CCC(C=O)=CC(=O)O (stereo not shown) [Compound 1, 16-oxo-cleroda-3,13(14)E-dien-15-oic acid] | 21.8 ± 1.55% | 40.3 ± 3.77% | 47.1 ± 2.71% | 60.4 ± 4.48% | 25.1 ± 0.99 µM | 25.1 µM | 10.7 ± 2.91% | 23.4 ± 3.07% | 42.8 ± 0.72% | 62.9 ± 3.84% | 26.4 ± 0.45 µM | 26.4 µM | 13.4 ± 0.72% | 25.7 ± 2.74% | 41.1 ± 1.43% | 65.4 ± 0.93% | 26.4 ± 0.39 µM | 26.4 µM
